From patent US11779546B2, “Disassembly of cholesterol crystals” (IP SCIENCE LIMITED, priority 2018, dated 2023)
Entries after “also recorded” stand apart in the source; their conditions may differ. Each block holds one molecule with its values, some of them ahead of it.

Assays:
[1] = Disassembly of crystallised cholesterol (Sigma) in ethanol solutions of test substance; format: physicochemical; settings: 100 mg crystallised cholesterol; for ratio of carotenoid to cholesterol at which complete disaggregation of the crystals was observed: 20 ml ethanol, 20-22° C., gentle stirring for a couple of minutes; for effect on size or number of the cholesterol crystals: 20 ml ethanol solutions with different concentrations, room temperature
Method: (§1) To 100 mg of crystallised cholesterol (Sigma) 20 ml of ethanol solutions with different concentrations of lycopene were added. As a control, 20 ml of the same ethanol was used but without any lycopene. After gentle stirring for a couple of minutes, under the room temperature of about 20-22° C., recording of the results was made.
as §1, with “lutein” for “lycopene”, “lutein.” for “lycopene.”, “at a” for “under the”
as §1, with “a number of biologically active hydrophobic substances and oils” for “lycopene”, “additives.” for “lycopene.”, “at a” for “under the”, “[…],” for “20-22° C.,”

[2] = Prevention of or interference into the formation of cholesterol crystals (evaporation of ethanol cholesterol solution); format: physicochemical; settings: for effect on rate / formation of cholesterol crystallisation: less than one molecule of lycopene per million molecules of cholesterol
Method: A solution of 198 ml of 1 g of cholesterol (Sigma) in 99% ethanol was divided in two equal parts. In one part 1 ml of ethanol containing […] of the dissolved lycopene was added. This provided ratio of lycopene to cholesterol as 1:10^6. Into the other part, the control, 1 ml of the ethanol itself was added. Then both samples were left in the dark room for evaporation under 20-22° C. Recording of the status of the both samples were made at least on a daily or even shorter intervals.

[3] = Changes of physical properties of cholesterol crystals formed in presence of lycopene; format: physicochemical
From the text: In a range of experiments where ratio of cholesterol to lycopene varied, from 1,000 to at least 10,000,000 molecules of the former to 1 molecule of the latter, noticeable changes in the physical properties of crystals were observed.
In all control experiments, cholesterol crystallised into a plate-like crystals, see FIG. 2B and FIG. 2D. Sometimes they could create a thick flat plate of few centimetres across, like the one on the bottom of the glass in the experiment 2, FIG. 2C. However, when lycopene was present in the medium a formation of a new type of crystals was observed.
Under the light and confocal microscopy these difference between two types of cholesterol crystals, in size and shape, are more evident (FIGS. 5A-F and 6A-B).

[4] = Disassembly of cholesterol crystals in the arterial wall (pieces of atherosclerotic abdominal aorta incubated 13 days); set-up: species or system human; settings: 1 μg/ml lycopene in ethanol diluted by PBS 10 fold, room temperature
From the text: It was important to confirm whether carotenoids, and lycopene in particular, can affect folding of cholesterol crystals, which are not just synthesized by a manufacturer, but produced naturally, and particularly those, which are developed during pathological process in human. For this purpose, we used pieces of atherosclerotic abdominal aorta, which were obtained during a combined vascular graft and by-pass surgery.
(§2) This was in terms of their stage of development, with prominently featured cholesterol crystals of similar size, embedded into the atheromatous tissues of the aorta wall. As a control material we collected pieces of the atherosclerotic abdominal aorta containing calcium phosphate crystals.
(§3) Firstly, an ethanol solution 1 μg/ml of lycopene was prepared. It was then diluted by PBS 10 fold. As a control, a solution was made with the same ratio ethanol to PBS but without lycopene. Then pieces of aorta were incubated, in light protected containers at the room temperature of about […] for 13 days.

[5] = Control: atherosclerotic abdominal aorta pieces containing calcium phosphate crystals incubated with lycopene; set-up: species or system human; settings: lycopene-ethanol-PBS, 13 days, room temperature
Method: as §2, §3

Molecule: CC1=C[C@H](O)CC(C)(C)[C@H]1/C=C/C(C)=C/C=C/C(C)=C/C=C/C=C(C)/C=C/C=C(C)/C=C/C1=C(C)C[C@@H](O)CC1(C)C [lutein]
- ratio of carotenoid to cholesterol at which complete disaggregation of the crystals was observed [1]: 1 to 20,000

Molecule: phosphatidylcholine [reference compound]
- effect on size or number of the cholesterol crystals [1]: not able to affect cholesterol crystals

Molecule: tocopherol [reference compound]
- effect on size or number of the cholesterol crystals [1]: ineffective

- size of the remaining crystalloid structures [4]: reduced by at least two-fold
Molecule: CC(C)=CCC/C(C)=C/C=C/C(C)=C/C=C/C(C)=C/C=C/C=C(C)/C=C/C=C(C)/C=C/C=C(\C)CCC=C(C)C [lycopene]
- effect on rate / formation of cholesterol crystallisation [2]: significantly affect the rate of its crystallisation
- effect on rate / formation of cholesterol crystallisation ([2]; listed as Lycopene): prevents or slows down formation of cholesterol crystallisation
- day by which crystallisation was completed ([2]; lycopene to cholesterol 1:10^6, ethanol evaporation in the dark, 20-22° C., control: 12th day): ≤ 14 days
- day on which floating cholesterol crystals started to appear ([2]; lycopene to cholesterol 1:10^6, ethanol evaporation in the dark, 20-22° C., control: after two days): 6 days
- incorporation into newly formed cholesterol crystal structures [3]: able to incorporate into newly formed crystal structures
- type (size and shape) of cholesterol crystals formed ([3]; cholesterol to lycopene 1,000 to at least 10,000,000 : 1, controls plate-like crystals): significantly smaller and in a shape of needle- or narrow tube-like crystals; also recorded: needle-like crystals
- ratio of carotenoid to cholesterol at which complete disaggregation of the crystals was observed [1]: 1 to 100,000
- size of the surrounding cholesterol-rich atheromatous mass of the lesion [4]: reduced by about two-fold
- number of crystalloid structures in the lesion at end of incubation ([4]; three structures at start): only two
- effect on size or shape of calcium phosphate crystals [5]: did not affect size or shape of calcium phosphate crystals
